# Experimental data taken from ChEMBL document CHEMBL3525917, “Species difference in the mechanism of nonlinear pharmacokinetics of E2074, a novel sodium channel inhibitor, in rats, dogs, and monkeys” (Drug Metab Dispos, 2013).
# Tests used:
# [1] = Drug metabolism in cynomolgus monkey liver microsomes after 15 mins by Michaelis-Menten plot analysis; format: ADME, Macaca fascicularis
# [2] = (§1) Drug metabolism in beagle dog liver microsomes after 30 mins by Michaelis-Menten plot analysis; format: ADME, Canis lupus familiaris; conditions: beagle, liver microsomes
# Liver microsome [3] = experiment: as §1; format: ADME, Canis lupus familiaris; conditions: microsomes, 0.5 h
# [4] = (§2) Drug metabolism in beagle dog liver microsomes after 30 mins by biphasic component Michaelis-Menten plot analysis; format: ADME, Canis lupus familiaris; conditions: beagle, liver microsomes
# Liver microsome [5] = experiment: as §2; format: ADME, Canis lupus familiaris; conditions: microsomes, 0.5 h
# Canis familiaris [6] = organism: Canis familiaris; experiment: Hepatic blood clearance in beagle dog; format: ADME, organism-based, Canis lupus familiaris; conditions: in vivo
# [7] = Drug metabolism in cynomolgus monkey intestinal microsomes by Michaelis-Menten plot analysis; format: ADME, Macaca fascicularis, Intestine, Microsome
# [8] = Drug metabolism in Sprague-Dawley rat intestinal microsomes; format: ADME, Intestine, Microsome
# [9] = Drug metabolism in beagle dog intestinal microsomes; format: ADME, Canis lupus familiaris, Intestine, Microsome
# [10] = Fraction unbound in Sprague-Dawley rat plasma at 0.25 uM by equilibrium dialysis technique; format: ADME, cell-free
# [11] = Fraction unbound in beagle dog plasma at 0.25 uM by equilibrium dialysis technique; format: ADME, cell-free, Canis lupus familiaris
# [12] = Fraction unbound in cynomolgus monkey plasma at 0.25 uM by equilibrium dialysis technique; format: ADME, cell-free, Macaca fascicularis
# Rattus norvegicus [13] = organism: Rattus norvegicus; experiment: Hepatic blood clearance in Sprague-Dawley rat; format: ADME, organism-based; conditions: in vivo
# [14] = Ratio of drug level in blood to plasma in Sprague-Dawley rat at 0.25 uM after 10 mins by equilibrium dialysis technique; format: ADME; conditions: blood and plasma
# [15] = Ratio of drug level in blood to plasma in beagle dog at 0.25 uM after 10 mins by equilibrium dialysis technique; format: ADME, Canis lupus familiaris; conditions: blood and plasma
# [16] = Ratio of drug level in blood to plasma in cynomolgus monkey at 0.25 uM after 10 mins by equilibrium dialysis technique; format: ADME, Macaca fascicularis; conditions: blood and plasma
# [17] = Fraction unbound in Sprague-Dawley rat liver microsomes at 0.25 uM by equilibrium dialysis technique; format: ADME
# [18] = Fraction unbound in beagle dog liver microsomes at 0.25 uM by equilibrium dialysis technique; format: ADME, Canis lupus familiaris
# [19] = Fraction unbound in cynomolgus monkey liver microsomes at 0.25 uM by equilibrium dialysis technique; format: ADME, Macaca fascicularis
# Rattus norvegicus [20] = organism: Rattus norvegicus; experiment: Unbound intrinsic clearance in Sprague-Dawley rat; format: ADME, organism-based; conditions: in vivo
# Canis familiaris [21] = organism: Canis familiaris; experiment: Unbound intrinsic clearance in beagle dog; format: ADME, organism-based, Canis lupus familiaris; conditions: in vivo
# Cynomolgus monkey [22] = experiment: Unbound intrinsic clearance in cynomolgus monkey; format: ADME, organism-based, Macaca fascicularis; conditions: in vivo
# Cynomolgus monkey [23] = experiment: Hepatic blood clearance in cynomolgus monkey; format: ADME, organism-based, Macaca fascicularis; conditions: in vivo
# [24] = Blood clearance in Sprague-Dawley rat; format: ADME, organism-based
# [25] = Blood clearance in beagle dog; format: ADME, organism-based, Canis lupus familiaris
# [26] = Blood clearance in cynomolgus monkey; format: ADME, organism-based, Macaca fascicularis
# [27] = Cmax in double-cannulated Sprague-Dawley rat portal vein at 10 mg/kg, po; format: ADME, organism-based; design: dose 10 mg/kg, route oral
# [28] = Cmax in double-cannulated Sprague-Dawley rat jugular vein at 10 mg/kg, po; format: ADME, organism-based; design: dose 10 mg/kg, route oral
# [29] = Half life in cynomolgus monkey at 1 mg/kg, iv in presence of ketoconazole; format: ADME, organism-based, Macaca fascicularis; design: dose 1 mg/kg, route intravenous; conditions: in vivo
# [30] = AUC in cynomolgus monkey at 1 mg/kg, iv in presence of ketoconazole; format: ADME, organism-based, Macaca fascicularis; design: dose 1 mg/kg, route intravenous; conditions: plasma
# [31] = Clearance in cynomolgus monkey at 1 mg/kg, iv in presence of ketoconazole; format: ADME, organism-based, Macaca fascicularis; design: dose 1 mg/kg, route intravenous; conditions: in vivo
# [32] = Volume of distribution at steady state in cynomolgus monkey at 1 mg/kg, iv in presence of ketoconazole; format: ADME, organism-based, Macaca fascicularis; design: dose 1 mg/kg, route intravenous; conditions: in vivo, read-out: Vdss
# Cynomolgus monkey [33] = experiment: Ratio of dose normalized AUC in cynomolgus monkey at 1 mg/kg, iv in presence of ketoconazole to dose normalized AUC in cynomolgus monkey at 1 mg/kg, iv; format: ADME, organism-based, Macaca fascicularis; conditions: in vivo
# [34] = Tmax in cynomolgus monkey at 3 mg/kg, po in presence of ketoconazole; format: ADME, organism-based, Macaca fascicularis; design: dose 3 mg/kg, route oral; conditions: in vivo
# [35] = Cmax in cynomolgus monkey at 3 mg/kg, po in presence of ketoconazole; format: ADME, organism-based, Macaca fascicularis; design: dose 3 mg/kg, route oral; conditions: in vivo
# [36] = Half life in cynomolgus monkey at 3 mg/kg, po in presence of ketoconazole; format: ADME, organism-based, Macaca fascicularis; design: dose 3 mg/kg, route oral; conditions: in vivo
# [37] = AUC in cynomolgus monkey at 3 mg/kg, po in presence of ketoconazole; format: ADME, organism-based, Macaca fascicularis; design: dose 3 mg/kg, route oral; conditions: plasma
# Cynomolgus monkey [38] = experiment: Ratio of dose normalized Cmax in cynomolgus monkey at 3 mg/kg, po in presence of ketoconazole to dose normalized Cmax in cynomolgus monkey at 3 mg/kg, po; format: ADME, organism-based, Macaca fascicularis; conditions: in vivo
# Cynomolgus monkey [39] = experiment: Ratio of dose normalized AUC in cynomolgus monkey at 3 mg/kg, po in presence of ketoconazole to dose normalized AUC in cynomolgus monkey at 3 mg/kg, po; format: ADME, organism-based, Macaca fascicularis; conditions: in vivo
# [40] = Tmax in cynomolgus monkey at 10 mg/kg, po in presence of ketoconazole; format: ADME, organism-based, Macaca fascicularis; design: dose 10 mg/kg, route oral; conditions: in vivo
# [41] = Cmax in cynomolgus monkey at 10 mg/kg, po in presence of ketoconazole; format: ADME, organism-based, Macaca fascicularis; design: dose 10 mg/kg, route oral; conditions: in vivo
# [42] = Half life in cynomolgus monkey at 10 mg/kg, po in presence of ketoconazole; format: ADME, organism-based, Macaca fascicularis; design: dose 10 mg/kg, route oral; conditions: in vivo
# [43] = AUC in cynomolgus monkey at 10 mg/kg, po in presence of ketoconazole; format: ADME, organism-based, Macaca fascicularis; design: dose 10 mg/kg, route oral; conditions: plasma
# Cynomolgus monkey [44] = experiment: Ratio of dose normalized Cmax in cynomolgus monkey at 10 mg/kg, po in presence of ketoconazole to dose normalized Cmax in cynomolgus monkey at 10 mg/kg, po; format: ADME, organism-based, Macaca fascicularis; conditions: in vivo
# Cynomolgus monkey [45] = experiment: Ratio of dose normalized AUC in cynomolgus monkey at 10 mg/kg, po in presence of ketoconazole to dose normalized AUC in cynomolgus monkey at 10 mg/kg, po; format: ADME, organism-based, Macaca fascicularis; conditions: in vivo
# [46] = target: T1, MDR1A (ABCB1, P-glycoprotein) (Mus musculus, UniProt P21447); experiment: Activity of mouse MDR1A expressed in pig LLC-PK1 cells assessed as permeability from apical to basolateral side at 1 uM after 2 hrs; format: ADME, cell-based; conditions: read-out: permeability
# [47] = target: T1, MDR1A (ABCB1, P-glycoprotein); experiment: Activity of mouse MDR1A expressed in pig LLC-PK1 cells assessed as permeability from basolateral to apical side at 1 uM after 2 hrs; format: ADME, cell-based; conditions: read-out: permeability
# [48] = Half life in Sprague-Dawley rat at 1 mg/kg, iv; format: ADME, organism-based; design: dose 1 mg/kg, route intravenous; conditions: in vivo
# [49] = AUC in Sprague-Dawley rat at 1 mg/kg, iv; format: ADME, organism-based; design: dose 1 mg/kg, route intravenous; conditions: plasma
# [50] = Clearance in Sprague-Dawley rat at 1 mg/kg, iv; format: ADME, organism-based; design: dose 1 mg/kg, route intravenous; conditions: in vivo
# [51] = Tmax in cynomolgus monkey at 3 mg/kg, po; format: ADME, organism-based, Macaca fascicularis; design: dose 3 mg/kg, route oral; conditions: in vivo
# [52] = Volume of distribution at steady state in Sprague-Dawley rat at 1 mg/kg, iv; format: ADME, organism-based; design: dose 1 mg/kg, route intravenous; conditions: in vivo, read-out: Vdss
# T1 sequence (P21447 whole entry): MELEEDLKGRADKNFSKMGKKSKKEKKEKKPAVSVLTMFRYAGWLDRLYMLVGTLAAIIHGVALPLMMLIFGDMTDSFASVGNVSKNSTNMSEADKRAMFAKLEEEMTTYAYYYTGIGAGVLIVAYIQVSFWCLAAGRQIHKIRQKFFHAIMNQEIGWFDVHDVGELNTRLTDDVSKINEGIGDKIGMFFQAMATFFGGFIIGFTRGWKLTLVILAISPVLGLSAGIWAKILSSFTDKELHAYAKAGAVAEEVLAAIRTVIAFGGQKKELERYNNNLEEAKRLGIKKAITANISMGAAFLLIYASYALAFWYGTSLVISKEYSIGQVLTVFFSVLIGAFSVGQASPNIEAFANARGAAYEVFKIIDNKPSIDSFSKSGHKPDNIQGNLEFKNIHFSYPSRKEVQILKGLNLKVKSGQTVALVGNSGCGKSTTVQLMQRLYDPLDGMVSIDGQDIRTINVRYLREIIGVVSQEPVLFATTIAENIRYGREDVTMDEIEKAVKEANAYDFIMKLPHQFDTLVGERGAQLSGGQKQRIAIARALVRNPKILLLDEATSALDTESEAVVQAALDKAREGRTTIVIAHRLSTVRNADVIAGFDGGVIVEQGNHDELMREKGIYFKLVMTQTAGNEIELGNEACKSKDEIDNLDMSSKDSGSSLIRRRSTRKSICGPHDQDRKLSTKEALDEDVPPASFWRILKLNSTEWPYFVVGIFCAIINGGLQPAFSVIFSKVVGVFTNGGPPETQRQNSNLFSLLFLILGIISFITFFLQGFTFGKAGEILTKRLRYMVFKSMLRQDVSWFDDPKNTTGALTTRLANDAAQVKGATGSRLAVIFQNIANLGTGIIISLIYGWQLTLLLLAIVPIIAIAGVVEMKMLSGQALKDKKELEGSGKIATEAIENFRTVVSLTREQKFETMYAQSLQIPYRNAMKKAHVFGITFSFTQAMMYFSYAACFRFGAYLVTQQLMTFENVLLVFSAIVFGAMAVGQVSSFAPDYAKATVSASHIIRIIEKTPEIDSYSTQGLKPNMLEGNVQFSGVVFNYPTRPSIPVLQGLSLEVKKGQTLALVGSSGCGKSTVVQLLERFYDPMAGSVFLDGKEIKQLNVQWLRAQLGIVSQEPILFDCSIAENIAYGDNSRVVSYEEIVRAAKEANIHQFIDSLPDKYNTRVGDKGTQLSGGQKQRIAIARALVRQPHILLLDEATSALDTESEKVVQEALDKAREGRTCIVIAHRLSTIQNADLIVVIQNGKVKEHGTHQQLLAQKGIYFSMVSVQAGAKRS
smiles,measurement,setting,value
Cc1nn(C[C@H](F)CN2C3CCC2CC(OCc2cccc(F)c2)C3)c(=O)n1C (some centres undefined),Km at 0.25 h,[1]; liver microsomes,42.4 µM
same,Vmax,"[1]; microsomes, 0.25 h",3.58 nmol/min/mg
same,Km at 0.5 h,[2],0.41 µM
same,Vmax,Liver microsome [3],0.07 nmol/min/mg
same,Km at 0.5 h,[4],21.5 µM
same,Vmax,Liver microsome [5],0.72 nmol/min/mg
same,CLH,Canis familiaris [6],30.5 mL/min/kg
same,Km,[7]; intestinal microsomes,34.6 µM
same,Vmax,[7]; microsomes,0.66 nmol/min/mg
same,Drug metabolism,[8],metabolite_not_detected
same,Drug metabolism,[9],metabolite_not_detected
same,fraction unbound at 0.25 µM,[10],0.675
same,fraction unbound at 0.25 µM,[11],0.601
same,fraction unbound at 0.25 µM,[12],0.676
same,CLH,Rattus norvegicus [13],53.2 mL/min/kg
same,"blood plasma ratio at 10 min, 0.25 µM",[14],0.89
same,"blood plasma ratio at 10 min, 0.25 µM",[15],0.86
same,"blood plasma ratio at 10 min, 0.25 µM",[16],1.01
same,fraction unbound at 0.25 µM,[17],1
same,fraction unbound at 0.25 µM,[18],1
same,fraction unbound at 0.25 µM,[19],1
same,CL free,Rattus norvegicus [20],196 µL/min/mg
same,CL free,Canis familiaris [21],208 µL/min/mg
same,CL free,Cynomolgus monkey [22],84 µL/min/mg
same,CLH,Cynomolgus monkey [23],33 mL/min/kg
same,clearance,[24],60 mL/min/kg
same,clearance,[25],32.8 mL/min/kg
same,clearance,[26],22.3 mL/min/kg
same,Cmax,[27],10600 ng/mL
same,Cmax,[28],1040 ng/mL
same,half-life,[29],1.96 h
same,AUC,[30],820 ng·h/mL
same,clearance,[31],20.3 mL/min/kg
same,Vd,[32],3.29 L/kg
same,Ratio,Cynomolgus monkey [33],1
same,Tmax,[34],1 h
same,Cmax,[35],400 ng/mL
same,half-life,[36],2.2 h
same,AUC,[37],1550 ng·h/mL
same,Ratio,Cynomolgus monkey [38],1
same,Ratio,Cynomolgus monkey [39],1
same,Tmax,[40],2 h
same,Cmax,[41],1520 ng/mL
same,half-life,[42],2.73 h
same,AUC,[43],7090 ng·h/mL
same,Ratio,Cynomolgus monkey [44],4.5
same,Ratio,Cynomolgus monkey [45],6.3
same,"Papp A→B at 2 h, 1 µM",[46],9.67 ×10⁻⁶ cm/s
same,"Papp B→A at 2 h, 1 µM",[47],30.4 ×10⁻⁶ cm/s
same,half-life,[48],0.85 h
same,AUC,[49],310 ng·h/mL
same,clearance,[50],53.5 mL/min/kg
same,Tmax,[51],1 h
same,Vd,[52],2.54 L/kg
